From PMC8913300, “Two distinct classes of cochaperones compete for the EEVD motif in heat shock protein 70 to tune its chaperone activities” (The Journal of Biological Chemistry, 2022)

Assays:
DnaJB4 [1] = molecular target: T1, DnaJB4 (Homo sapiens, UniProt Q9UDY4); assay: DnaJB4 FP competition (displacement of Hsp72 tracer); type: binding; conditions: 100 μM peptide, 5 μM DnaJB4, 20 nM Hsp72 tracer, 30 min room temperature; for % tracer displacement: relative to DMSO control, mean ± SD (n = 4)
T1 construct: 6-His with TEV-cleavable linker (N, cleaved yes); made in house; host or cells: Escherichia coli BL21 (DE3) Rosetta
Method: (§1) All FP experiments were performed in 384-well, black, low-volume, round-bottom plates at a final assay volume of 18 μl (Corning 4511). Polarization values in millipolarization units (mP) were measured at an excitation wavelength of 485 nm and an emission wavelength of 525 nm, with 100 flashes per read using a Spectramax M5 plate reader (Molecular Devices). All experiments were performed 2 times in quadruplicate. Experimental data were analyzed using GraphPad Prism 9. Saturation binding data were background subtracted, and curves were fit using the model [Agonist] versus response (three parameters). For competition experiments, data were background subtracted to tracer alone and normalized to DMSO control to determine relative tracer displacement.
Unlabeled peptides were assessed for the ability to compete with the Hsp72 tracer. Briefly, 100 μM peptides were incubated with 5 μM DnaJB4 and 20 nM Hsp72 tracer in JDP binding buffer (see above). The plate was covered from light and allowed to incubate at room temperature for 30 min prior to reading.

DnaJB4 [2] = molecular target: T1, DnaJB4; assay: Differential scanning fluorimetry of DnaJB4 with chaperone peptides; type: binding; conditions: 5 μM DnaJB4, 100 μM peptide; for DnaJB4 apparent melting temperature (Tm,app): 5× Sypro Orange, JDP binding buffer, mean ± SD (n = 4), without peptide 57 ± 0.06 °C
Method: DSF was performed with a 15-μl assay volume in 384-well Axygen quantitative PCR plates (Fisher Scientific) on a qTower ([3]) real-time PCR thermal cycler (Analytik Jena). Fluorescence intensity readings were taken over 70 cycles in “up-down” mode, where reactions were heated to desired temperature and then cooled to 25 °C before reading. The temperature was increased 1 °C per cycle. Each well contained 5 μM DnaJB4, 5 × Sypro Orange dye (Thermo Fisher), and 100 μM of peptide in JDP binding buffer. Fluorescence intensity data were truncated between 45 and 70 °C, plotted relative to temperature, and fit to a Boltzmann Sigmoid in Prism 9.0 (GraphPad). DnaJB4 apparent melting temp (Tm,app) was calculated based on the following equation: Y = Bottom + ((Top-Bottom)/(1 + exp(Tm-T/Slope))).

CHIP = molecular target: T2, CHIP (Homo sapiens, UniProt Q9UNE7); assay: CHIP FP competition (displacement of Hsp72 tracer); type: binding; conditions: 100 μM peptide, 1.58 μM CHIP, 20 nM Hsp72 tracer, 30 min room temperature
T2 construct: 6-His with TEV-cleavable linker (N, cleaved yes); made in house; host or cells: E. coli BL21(DE3)
T2 sequence (Q9UNE7 1-303): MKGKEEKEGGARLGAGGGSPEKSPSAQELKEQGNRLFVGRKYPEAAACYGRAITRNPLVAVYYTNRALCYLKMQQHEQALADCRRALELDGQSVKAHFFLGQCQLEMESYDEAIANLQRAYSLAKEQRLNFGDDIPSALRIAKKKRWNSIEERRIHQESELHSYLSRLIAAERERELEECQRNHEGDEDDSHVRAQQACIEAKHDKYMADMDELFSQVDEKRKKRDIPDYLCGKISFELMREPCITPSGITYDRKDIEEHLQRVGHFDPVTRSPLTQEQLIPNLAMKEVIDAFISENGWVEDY
Method: as §1
Mixtures of 1.58 μM CHIP and 20 nM Hsp72 tracer were incubated with 100 μM unlabeled competitor peptides in CHIP FP assay buffer (50 mM Hepes pH 7.4, 50 mM KCl, 0.01% Triton X-100). The plate was covered from light and allowed to incubate at room temperature for 30 min prior to reading.

Hsp72–DnaJB4 complex = assay: Luciferase refolding by Hsp72/DnaJB4 in the presence of TPR cochaperones; type: biochemical; conditions: 1 μM Hsp72, 100 nM denatured luciferase, 120 nM DnaJB4; CHIP titration or 10 μM TPR protein; 1 h at 37 °C
Method: (§2) Experiments were performed as described ([14]). Briefly, Renilla luciferase (Promega) was denatured in 8 M GdnHCl for 2 h at room temperature. Hsp72 (1 μM) and denatured luciferase (100 nM) were diluted into a working concentration in buffer containing an ATP regenerating system (23 mM Hepes, 120 mM KAc, 1.2 mM MgAc, 15 mM DTT, 61 mM creatine phosphate, 35 units/ml creatine kinase, and 5 ng/μl bovine serum albumin, pH 7.4). A titration series of DnaJB4 was added, and the reaction was initiated with the addition of 2.5 mM ATP. For competition assays with DnaJB4, complexes of Hsp72 (1 μM), denatured luciferase (100 nM), and DnaJB4 (120 nM) were incubated with either a titration of CHIP or 10 μM of indicated TPR protein. In all cases, the assay was allowed to incubate for 1 h at 37 °C in white, 96-well flat-bottom plates (Corning 3990). Luminescence was measured using the SteadyGlo luminescence reagent (Promega), and percent refolded luciferase was calculated using a standard curve of 100 to 0 nM native luciferase.

[3] = system: denatured Renilla luciferase; assay: Luciferase refolding by Hsp72 variants in the presence of DnaJA2; type: biochemical; conditions: 1 μM Hsp72, 100 nM denatured luciferase, 1 h at 37 °C
[4] = system: denatured Renilla luciferase; assay: Luciferase refolding by Hsp72 variants in the presence of DnaJB4; type: biochemical; conditions: 1 μM Hsp72, 100 nM denatured luciferase, DnaJB4 titration, 1 h at 37 °C
Method: as §2

Hsp72 ATPase activity = assay: Intrinsic ATPase activity of Hsp72 variants (malachite green); type: biochemical; conditions: 1 μM Hsp72, 2.5 mM ATP, 1 h at 37 °C, mean ± SD (n = 3)
Method: ATPase assays were carried out using the malachite green assay as described ([14], [83]). In brief, 1 μM Hsp72 and various concentrations of DnaJB4 were added to clear 96-well plates, and the reactions were initiated by addition of 2.5 mM ATP. Reactions were allowed to proceed for 1 h at 37 °C, after which they were developed using malachite green reagent and quenched with sodium citrate. Plate absorbance was measured at 620 nm, and a standard curve of sodium phosphate was used to convert the absorbance values to pmol ATP/μM Hsp72/min. Vmax and Km, app were derived as fit parameters to a modified Michaelis–Menten model (ATPase rate=Vmax∗[DnaJB4]/(Km, app+[DnaJB4])) where Vmax reflects the maximal increased ATP hydrolysis conferred by DnaJB4 binding and Km,app represents the half-maximal concentration of DnaJB4 binding to and stimulating the ATPase activity of Hsp72.

T1 sequence (Q9UDY4 whole entry): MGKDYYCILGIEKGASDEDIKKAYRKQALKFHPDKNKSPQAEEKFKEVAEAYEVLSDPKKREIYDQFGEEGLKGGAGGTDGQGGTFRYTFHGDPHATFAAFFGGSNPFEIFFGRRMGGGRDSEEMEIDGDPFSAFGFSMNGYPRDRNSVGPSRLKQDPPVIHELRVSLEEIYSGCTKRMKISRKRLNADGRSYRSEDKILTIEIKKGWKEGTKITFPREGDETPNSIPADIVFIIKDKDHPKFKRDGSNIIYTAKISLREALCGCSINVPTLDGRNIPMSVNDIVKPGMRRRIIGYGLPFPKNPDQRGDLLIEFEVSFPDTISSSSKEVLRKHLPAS

Substance | % tracer displacement (DnaJB4 [1]) | DnaJB4 apparent melting temperature (Tm,app) (DnaJB4 [2]) | binding to DnaJB4 in FP competition relative to WT Hsp72 peptide (DnaJB4 [1]) | intrinsic ATPase activity (Hsp72 ATPase activity) | also measured
GSGPTIEEVD [Hsp72, unlabeled, N-acetylated 10-mer peptide corresponding to the C terminus of Hsp72/HSPA1A] | 40.2 ± 4.6% | 58 ± 0.21 °C |  |  | positive shift in the melt curves (DnaJB4 [2]; versus no peptide): 1 to 2 °C
GSGPTIEEVD-CONH2 [peptide with an amidated Hsp72 C terminus] |  |  | drastically reduced binding |  | binding to CHIP in FP competition relative to WT Hsp72 peptide (CHIP): carboxylate was important for binding to CHIP
HOP: Hsc70 organizing protein, TPR cochaperone |  |  |  |  | effect on client (luciferase) refolding by Hsp72–DnaJB4 (Hsp72–DnaJB4 complex): suppressed luciferase refolding
Hsp72 I637A: full-length Hsp72 with point mutation of the critical P5 isoleucine residue |  |  |  | 15.8 ± 3.9 pmol ATP/min | luciferase refolding in the presence of DnaJA2 [3]: comparably with WT; ability to coordinate with DnaJB4 in luciferase refolding [4]: nearly completely impaired
Hsp72 ΔEEVD: mutant of full-length Hsp72 in which the EEVD motif was deleted |  |  |  | 4.6 ± 1.9 pmol ATP/min | ability to coordinate with DnaJB4 in luciferase refolding [4]: nearly completely impaired
Hsp90β: unlabeled, N-acetylated 10-mer peptide corresponding to the C terminus of Hsp90β | −1.3 ± 2.2% | 57 ± 0.20 °C |  |  | 
Hsp90⍺: unlabeled, N-acetylated 10-mer peptide corresponding to the C terminus of Hsp90⍺ | −7.7 ± 1.5% | 57 ± 0.15 °C |  |  | 
IEEVD |  |  | further worsened it |  | 
TIEEVD |  |  | significantly weakened affinity |  | 
WT Hsp72: full-length recombinant Hsp72/HSPA1A |  |  |  | 10.9 ± 2.8 pmol ATP/min | 
